Earlier results as cited in patent US20080089854A1, “Skin care compositions” (priority 2006, published 2008).

Experiments:
[1] = topical application
[2] = animal studies

- share of topically applied azelaic acid that is absorbed [1]: about 3.6%
SMILES: O=C(O)CCCCCCCC(=O)O [azelaic acid]
- adverse effects on fertility or reproduction [2]: no adverse effects
